The record followed here is patent US20170114070A1, “INHIBITORS OF THE WNT SIGNALLING PATHWAYS” (Bayer Pharma Aktiengesellschaft, priority 2014, published 2017).

Bounds are passed on as bounds.

Usually IC50 stands for the concentration at which inhibition is half-maximal. Low readings indicate greater potency, high ones weaker potency.

Test [1] deals with constitutive active Wnt pathway (HCT116 TOPFlash). The experiment in a line: Cellular reporter assay, HCT116 Super TopFlash (constitutive active Wnt pathway). Format: cell-based. The note with it: Homo sapiens, HCT-116; HCT116 stably transfected with Super TopFlash vector; 36 hours incubation; luciferase expression. Here is the method:
In order to discover and characterize small molecules which inhibit the constitutive active colorectal cancer cell (CRC) Wnt pathway, a cellular reporter assay was employed. The corresponding assay cell was generated by transfection of the colorectal cancer cell line HCT116 (ATCC, #CCL-247) with the Super TopFlash vector (Morin, Science 275, 1997, 1787-1790; Molenaar et al., Cell 86 (3), 1996, 391-399). The HCT116 cell line is cultivated at 37° C. and 5% CO2 in DMEM/F-12 (Life Technologies, #11320-074), supplemented with 2 mM glutamine, 20 mM HEPES, 1.4 mM pyruvate, 0.15% Na-bicarbonate and 10% foetal bovine serum (GIBCO, #10270), this cancer cell line is pathophysiological relevant since it carries a deletion of position S45 in the β-catenin gene, leading to constitutive active Wnt signaling. Stable transfectants were generated by cotransfection with pcDNA3 and selection of stable transfected cells with 1 mg/ml G418.
(§1) In a parallel approach, HCT116 cells were cotransfected with the FOP control vector and pcDNA3. The FOP vector is identical to the TOP construct, but it contains instead of functional TCF elements a randomized, non-functional sequence. For this transfection a stable transfected cell line was generated as well.
(§2) In preparation of the assay, the two cell lines were plated 24 hours before at 10000 cells per well of a 384 micro titre plate (MTP) in 30 μL growth medium. Selective inhibitory activity for small molecules on the mutated Wnt pathway was determined after parallel incubation of both (TOP and FOP) HCT116 reporter cell lines with a compound dilution series from 50 μM to 15 nM in steps of 3.16-fold dilutions in CAFTY buffer (130 mM NaCl, 5 mM KCl, 20 mM HEPES, 1 mM MgCl2, 5 mM NaHCO3, pH 7.4) containing 2 mM Ca^2+ and 0.01% BSA. The compounds were thereby serially prediluted in 100% DMSO and thereafter in addition 50 fold into the CAFTY compound dilution buffer (described above). From this dilution 10 μL were added to the cells in 30 μL growth medium and incubated for 36 hours at 37° C. and 5% CO2. Thereafter luciferase assay buffer (1:1 mixture of luciferase substrate buffer (20 mM Tricine, 2.67 mM MgSO4, 0.1 mM EDTA, 4 mM DTT, 270 μM Coenzyme A, 470 μM Luciferin, 530 μM ATP, ph adjusted to pH 7.8 with a sufficient volume of 5M NaOH) and Triton buffer (30 mL Triton X-100, 115 mL glycerol, 308 mg Dithiothreitol, 4.45 g Na2HPO4.2H2O, 3.03 g TRIS HCl, ad 1 l H20, pH 7.8) was added as equal volume to the compound solution on the cells to determine luciferase expression as a measure of Wnt signaling activity in a luminometer.

The subject of test [2] is HCT116 FOPFlash (FOP control vector, non-functional TCF elements). Kind of test: Cellular control reporter assay, HCT116 FOP control vector. Particulars: Homo sapiens, HCT-116; HCT116 stably transfected with FOP control vector; 36 hours incubation; luciferase expression; dilution series from 50 μM. Format: cell-based. Here is the method:
as §1, §2
For orientation: A reporter such as luciferase makes a cellular process visible.

With `O=C(CN1CCOCC1)Nc1cc(C(=O)Nc2ccc(-c3cccnc3)nn2)ccc1OC(F)(F)F` [Example 14, 3-[(morpholin-4-ylacetyl)amino]-N-[6-(pyridin-3-yl)pyridazin-3-yl]-4-(trifluoromethoxy)benzamide], the IC50 was 54 nM in test [1] and no less than 50000 nM in test [2].

`CN1CCN(CC(=O)Nc2cc(C(=O)Nc3cnc(-c4ccccc4Cl)cn3)ccc2OC(F)(F)F)CC1` [Example 44, N-[5-(2-chlorophenyl)pyrazin-2-yl]-3-{[(4-methylpiperazin-1-yl)acetyl]amino}-4-(trifluoromethoxy)benzamide]: the IC50 in test [1] is 16800 nM; in test [2], no less than 50000 nM.

Regarding `O=C(CN1CCOCC1)Nc1cc(C(=O)Nc2ccc(-c3cncnc3)nn2)ccc1OC(F)(F)F` [Example 15, 3-[(morpholin-4-ylacetyl)amino]-N-[6-(pyrimidin-5-yl)pyridazin-3-yl]-4-(trifluoromethoxy)benzamide], the IC50 was 636 nM in test [1] and no less than 50000 nM in test [2].

As for `CN1CCN(CC(=O)Nc2cc(C(=O)Nc3cnc(-c4cnccn4)cn3)ccc2OC(F)(F)F)CC1` [Example 54, N-(2,2′-bipyrazin-5-yl)-3-{[(4-methylpiperazin-1-yl)acetyl]amino}-4-(trifluoromethoxy)benzamide], the IC50 is 1350 nM in test [1] and no less than 50000 nM in test [2].

`O=C(CN1CCN(CC(F)F)CC1)Nc1cc(C(=O)Nc2ccc(-c3ccccc3)nn2)ccc1OC(F)(F)F` [Example 5, 3-({[4-(2,2-difluoroethyl)piperazin-1-yl]acetyl}amino)-N-(6-phenylpyridazin-3-yl)-4-(trifluoromethoxy)benzamide]: the IC50 is 205 nM in test [1] and no less than 50000 nM in test [2].

`CN1CCN(CC(=O)Nc2cc(C(=O)Nc3ccc(-c4cccnc4F)nn3)ccc2OC(F)(F)F)CC1` [Example 12, N-[6-(2-fluoropyridin-3-yl)pyridazin-3-yl]-3-{[(4-methylpiperazin-1-yl)acetyl]amino}-4-(trifluoromethoxy)benzamide]: the figures for the IC50 in test [1] and in test [2] were 120 nM and no less than 50000 nM, respectively.

For `CN1CCN(CC(=O)Nc2cc(C(=O)Nc3ccc(-c4ccccc4)nn3)ccc2OC(F)(F)F)CC1` [Example 9, 3-{[(4-methylpiperazin-1-yl)acetyl]amino}-N-(6-phenylpyridazin-3-yl)-4-(trifluoromethoxy)benzamide], the values for the IC50 in test [1] and in test [2] were 29.7 nM and no less than 50000 nM, respectively.

As for `CN1CCN(CC(=O)Nc2cc(C(=O)Nc3cnc(-c4ccccc4)cn3)ccc2OC(F)(F)F)CC1` [Example 11, 3-{[(4-methylpiperazin-1-yl)acetyl]amino}-N-(5-phenylpyrazin-2-yl)-4-(trifluoromethoxy)benzamide], the IC50 was 13 nM in test [1] and no less than 50000 nM in test [2].

For the molecule `O=C(CN1CCOCC1)Nc1cc(C(=O)Nc2ccc(-c3ccccc3)nn2)ccc1OC(F)(F)F` [Example 7, 3-[(morpholin-4-ylacetyl)amino]-N-(6-phenylpyridazin-3-yl)-4-(trifluoromethoxy)benzamide], the results for the IC50 in test [1] and in test [2] were 20 nM and no less than 50000 nM, respectively.

On to `CN1CCN(CC(=O)Nc2cc(C(=O)Nc3cnc(-c4cc(F)cc(F)c4)cn3)ccc2OC(F)(F)F)CC1` [Example 43, N-[5-(3,5-difluorophenyl)pyrazin-2-yl]-3-{[(4-methylpiperazin-1-yl)acetyl]amino}-4-(trifluoromethoxy)benzamide], for which the figures for the IC50 in test [1] and in test [2] were 155 nM and 27600 nM, respectively.

`O=C(CN1CCOCC1)Nc1cc(C(=O)Nc2cnc(-c3cccc(Cl)c3)cn2)ccc1OC(F)(F)F` [Example 35, N-[5-(3-chlorophenyl)pyrazin-2-yl]-3-[(morpholin-4-ylacetyl)amino]-4-(trifluoromethoxy)benzamide]: the results for the IC50 in test [1] and in test [2] were 116 nM and no less than 5770 nM, respectively.

Consider `O=C(CN1CCOCC1)Nc1cc(C(=O)Nc2ncc(-c3ccccc3)cn2)ccc1OC1CC1` [Example 34, 4-(cyclopropyloxy)-3-[(morpholin-4-ylacetyl)amino]-N-(5-phenylpyrimidin-2-yl)benzamide], for which the IC50 in test [1] was 12600 nM; in test [2], no less than 50000 nM.

On to `CN1CCN(CC(=O)Nc2cc(C(=O)Nc3ccc(-c4cncnc4)nn3)ccc2OC(F)(F)F)CC1` [Example 2, 3-{[(4-methylpiperazin-1-yl)acetyl]amino}-N-[6-(pyrimidin-5-yl)pyridazin-3-yl]-4-(trifluoromethoxy)benzamide], for which the IC50 is 162 nM in test [1] and no less than 50000 nM in test [2].

For the molecule `Cc1ccccc1-c1cnc(NC(=O)c2ccc(OC(F)(F)F)c(NC(=O)CN3CCOCC3)c2)cn1` [Example 39, N-[5-(2-methylphenyl)pyrazin-2-yl]-3-[(morpholin-4-ylacetyl)amino]-4-(trifluoromethoxy)benzamide], the values for the IC50 in test [1] and in test [2] were 225 nM and 24900 nM, respectively.

As to `O=C(Nc1cnc(-c2ccccc2)cn1)c1ccc(OC(F)(F)F)c(NC(=O)C2(N3CCOCC3)CC2)c1` [Example 20, 3-({[1-(morpholin-4-yl)cyclopropyl]carbonyl}amino)-N-(5-phenylpyrazin-2-yl)-4-(trifluoromethoxy)benzamide], the values for the IC50 in test [1] and in test [2] were 14.4 nM and no less than 50000 nM, respectively.

Take `Cc1cccc(-c2cnc(NC(=O)c3ccc(OC(F)(F)F)c(NC(=O)CN4CCOCC4)c3)cn2)c1` [Example 47, N-[5-(3-methylphenyl)pyrazin-2-yl]-3-[(morpholin-4-ylacetyl)amino]-4-(trifluoromethoxy)benzamide]: the IC50 in test [1] is 240 nM; in test [2], 4100 nM.

With `CN1CCN(CC(=O)Nc2cc(C(=O)Nc3cnc(-c4cccc(F)c4)cn3)ccc2OC(F)(F)F)CC1` [Example 59, N-[5-(3-fluorophenyl)pyrazin-2-yl]-3-{[(4-methylpiperazin-1-yl)acetyl]amino}-4-(trifluoromethoxy)benzamide], the IC50 was 3000 nM in test [1] and no less than 50000 nM in test [2].

Regarding `CN1CCN(CC(=O)Nc2cc(C(=O)Nc3ccc(-c4cccnc4)nn3)ccc2OC(F)(F)F)CC1` [Example 4, 3-{[(4-methylpiperazin-1-yl)acetyl]amino}-N-[6-(pyridin-3-yl)pyridazin-3-yl]-4-(trifluoromethoxy)benzamide], the IC50 was 17.5 nM in test [1] and no less than 50000 nM in test [2].

Consider `CN1CCN(CC(=O)Nc2cc(C(=O)Nc3cnc(-c4cnc(N)cn4)cn3)ccc2OC(F)(F)F)CC1` [Example 60, N-(5′-amino-2,2′-bipyrazin-5-yl)-3-{[(4-methylpiperazin-1-yl)acetyl]amino}-4-(trifluoromethoxy)benzamide], for which the IC50 in test [1] was 4100 nM; in test [2], no less than 50000 nM.

For the molecule `Nc1ncc(-c2ccc(NC(=O)c3ccc(OC(F)(F)F)c(NC(=O)CN4CCOCC4)c3)nn2)cn1` [Example 13, N-[6-(2-aminopyrimidin-5-yl)pyridazin-3-yl]-3-[(morpholin-4-ylacetyl)amino]-4-(trifluoromethoxy)benzamide], the concentration for half-maximal inhibition (IC50) in test [1] is 67.2 nM; in test [2], no less than 50000 nM.

Consider `CN1CCN(CC(=O)Nc2cc(C(=O)Nc3ccc(-c4ccc(N)nc4)nn3)ccc2OC(F)(F)F)CC1` [Example 1, N-[6-(6-aminopyridin-3-yl)pyridazin-3-yl]-3-{[(4-methylpiperazin-1-yl)acetyl]amino}-4-(trifluoromethoxy)benzamide], for which the IC50 in test [1] is 24.8 nM; in test [2] it was no less than 50000 nM.

Take `Cc1cccc(-c2cnc(NC(=O)c3ccc(OC(F)(F)F)c(NC(=O)CN4CCN(C)CC4)c3)cn2)c1` [Example 32, N-[5-(3-methylphenyl)pyrazin-2-yl]-3-{[(4-methylpiperazin-1-yl)acetyl]amino}-4-(trifluoromethoxy)benzamide]: the IC50 in test [1] worked out at 16700 nM; in test [2], 40000 nM.

As for `O=C(CN1C[C@@H]2C[C@H]1CO2)Nc1cc(C(=O)Nc2ccc(-c3ccccc3)nn2)ccc1OC(F)(F)F` [Example 8, 3-{[(1S,4S)-2-oxa-5-azabicyclo[2.2.1]hept-5-ylacetyl]amino}-N-(6-phenylpyridazin-3-yl)-4-(trifluoromethoxy)benzamide], the half-inhibitory concentration (IC50) was 125 nM in test [1] and no less than 50000 nM in test [2].
